ChEMBL document CHEMBL1201862, “PubChem BioAssay data set” (2004)
One block for each compound: values may come before it. Calls of active or inactive are those of the source.

What was measured:
[1] = molecular target: T1, Short transient receptor potential channel 4 (Mus musculus, UniProt Q9QUQ5); experiment: mouse TRPC4 channel activators, dose response, cell-based, HEK293 TRPC4/mu-opioid, Fluo-4 calcium (AID 434937); format: functional
T1 sequence (Q9QUQ5 whole entry): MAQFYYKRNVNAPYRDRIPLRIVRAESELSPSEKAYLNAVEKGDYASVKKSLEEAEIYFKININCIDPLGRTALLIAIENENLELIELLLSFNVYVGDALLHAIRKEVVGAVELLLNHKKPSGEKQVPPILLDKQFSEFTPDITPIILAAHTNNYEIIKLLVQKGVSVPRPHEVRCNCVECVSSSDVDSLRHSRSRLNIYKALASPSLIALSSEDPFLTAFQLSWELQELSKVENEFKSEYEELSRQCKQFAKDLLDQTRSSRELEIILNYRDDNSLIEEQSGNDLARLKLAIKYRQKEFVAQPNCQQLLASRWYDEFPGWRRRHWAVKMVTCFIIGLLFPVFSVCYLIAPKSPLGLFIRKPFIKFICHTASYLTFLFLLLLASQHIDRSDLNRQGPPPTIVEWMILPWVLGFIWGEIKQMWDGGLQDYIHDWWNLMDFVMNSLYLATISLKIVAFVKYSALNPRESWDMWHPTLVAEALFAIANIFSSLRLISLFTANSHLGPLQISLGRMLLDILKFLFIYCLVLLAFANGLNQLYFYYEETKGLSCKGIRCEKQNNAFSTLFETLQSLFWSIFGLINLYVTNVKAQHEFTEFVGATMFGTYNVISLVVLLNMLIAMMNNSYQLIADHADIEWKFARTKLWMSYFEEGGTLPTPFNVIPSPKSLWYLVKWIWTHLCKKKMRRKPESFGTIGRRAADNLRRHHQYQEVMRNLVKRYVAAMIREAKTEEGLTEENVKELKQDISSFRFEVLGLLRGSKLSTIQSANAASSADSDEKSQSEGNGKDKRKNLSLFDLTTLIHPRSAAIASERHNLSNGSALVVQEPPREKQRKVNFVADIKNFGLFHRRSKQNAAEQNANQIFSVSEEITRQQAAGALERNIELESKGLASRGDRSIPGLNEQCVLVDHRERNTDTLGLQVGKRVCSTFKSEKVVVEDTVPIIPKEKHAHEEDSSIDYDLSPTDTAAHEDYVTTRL

[2] = Luminescence Cell-Based Dose Confirmation HTS to Identify Inhibitors of Platelet Dense Granule Release. [Related pubchem assays: 1663 (Primary HTS), 1678 (Summary of Project)]; format: functional
Cytochrome P450 2C19 = Cytochrome P450 2C19 (Homo sapiens, UniProt P33261); experiment: Cytochrome panel assay with activity outcomes. Panel member name: p450-cyp2c19 Compounds with AC50 equal or less than 10 uM are considered active; format: functional; settings: read-out: AC50
Sequence of Cytochrome P450 2C19 (P33261 whole entry): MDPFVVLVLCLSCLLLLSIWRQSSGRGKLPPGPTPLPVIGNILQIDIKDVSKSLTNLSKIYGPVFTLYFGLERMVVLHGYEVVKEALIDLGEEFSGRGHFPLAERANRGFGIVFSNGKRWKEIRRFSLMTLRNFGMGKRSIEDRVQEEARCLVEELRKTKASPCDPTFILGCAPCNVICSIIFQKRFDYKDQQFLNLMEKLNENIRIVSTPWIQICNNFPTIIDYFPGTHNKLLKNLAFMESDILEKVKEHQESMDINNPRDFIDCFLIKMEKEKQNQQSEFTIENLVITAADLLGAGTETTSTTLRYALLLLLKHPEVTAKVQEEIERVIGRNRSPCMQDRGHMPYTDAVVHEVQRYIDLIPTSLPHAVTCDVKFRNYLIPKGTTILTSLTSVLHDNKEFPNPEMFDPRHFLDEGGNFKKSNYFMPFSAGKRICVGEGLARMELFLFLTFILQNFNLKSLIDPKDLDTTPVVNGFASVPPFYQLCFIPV

Cytochrome P450 3A4 = Cytochrome P450 3A4 (Homo sapiens, UniProt P08684);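 further: CYP3A4 tested as one member of a cytochrome P450 panel screen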
Sequence of Cytochrome P450 3A4 (P08684 whole entry): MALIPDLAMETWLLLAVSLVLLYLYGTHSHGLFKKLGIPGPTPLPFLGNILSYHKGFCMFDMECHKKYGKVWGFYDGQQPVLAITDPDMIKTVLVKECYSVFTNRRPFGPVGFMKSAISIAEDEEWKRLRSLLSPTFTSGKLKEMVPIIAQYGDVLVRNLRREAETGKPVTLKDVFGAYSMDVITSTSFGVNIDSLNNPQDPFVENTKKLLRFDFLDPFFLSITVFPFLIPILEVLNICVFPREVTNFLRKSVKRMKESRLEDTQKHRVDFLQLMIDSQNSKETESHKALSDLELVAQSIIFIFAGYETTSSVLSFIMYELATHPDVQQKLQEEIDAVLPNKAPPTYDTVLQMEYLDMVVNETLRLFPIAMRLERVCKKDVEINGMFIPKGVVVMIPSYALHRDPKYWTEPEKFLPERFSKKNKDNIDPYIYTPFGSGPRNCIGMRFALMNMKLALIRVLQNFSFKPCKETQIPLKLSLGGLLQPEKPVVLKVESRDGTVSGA

Cytochrome P450 2C9 = Cytochrome P450 2C9 (Homo sapiens, UniProt P11712)
Sequence of Cytochrome P450 2C9 (P11712 whole entry): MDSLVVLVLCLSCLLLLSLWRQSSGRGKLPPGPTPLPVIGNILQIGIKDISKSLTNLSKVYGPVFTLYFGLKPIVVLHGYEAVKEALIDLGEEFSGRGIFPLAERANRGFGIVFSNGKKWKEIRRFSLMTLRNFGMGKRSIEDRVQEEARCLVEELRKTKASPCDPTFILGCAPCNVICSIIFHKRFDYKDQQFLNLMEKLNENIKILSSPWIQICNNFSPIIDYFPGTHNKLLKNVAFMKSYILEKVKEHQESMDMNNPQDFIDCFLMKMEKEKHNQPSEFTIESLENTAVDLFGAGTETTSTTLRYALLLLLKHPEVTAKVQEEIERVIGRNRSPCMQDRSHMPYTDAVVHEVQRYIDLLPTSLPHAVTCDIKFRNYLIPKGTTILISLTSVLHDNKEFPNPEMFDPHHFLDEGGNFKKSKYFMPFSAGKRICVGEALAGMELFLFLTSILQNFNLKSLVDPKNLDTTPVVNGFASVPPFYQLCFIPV

[3] = molecular target: Luciferin 4-monooxygenase (Photinus pyralis, UniProt P08659); experiment: firefly luciferase enzyme inhibitors, dose response, biochemical, luminescence (AID 1891)
Sequence of Luciferin 4-monooxygenase (P08659 whole entry): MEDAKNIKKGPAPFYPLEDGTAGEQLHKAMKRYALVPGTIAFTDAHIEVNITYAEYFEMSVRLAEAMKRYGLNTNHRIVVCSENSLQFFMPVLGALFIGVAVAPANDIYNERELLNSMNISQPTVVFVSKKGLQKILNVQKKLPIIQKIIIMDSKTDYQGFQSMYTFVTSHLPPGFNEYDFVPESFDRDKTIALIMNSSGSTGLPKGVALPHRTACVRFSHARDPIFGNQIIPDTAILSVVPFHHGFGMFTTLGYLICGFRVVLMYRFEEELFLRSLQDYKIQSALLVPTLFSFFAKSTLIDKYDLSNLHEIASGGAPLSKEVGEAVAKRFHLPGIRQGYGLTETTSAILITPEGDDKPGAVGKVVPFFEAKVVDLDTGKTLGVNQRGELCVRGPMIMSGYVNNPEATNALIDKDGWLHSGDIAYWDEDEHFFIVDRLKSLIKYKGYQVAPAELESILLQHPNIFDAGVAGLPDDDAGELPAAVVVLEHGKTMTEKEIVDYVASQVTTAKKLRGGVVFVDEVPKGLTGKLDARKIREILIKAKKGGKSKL

[4] = molecular target: T2, DNA repair and recombination protein RAD54-like (Homo sapiens, UniProt Q92698); experiment: inhibitors of human RAD54 branch migration, confirmation, biochemical, fluorescence, cherry-picked samples, dose series (AID 651657); format: functional
T2 sequence (Q92698 whole entry): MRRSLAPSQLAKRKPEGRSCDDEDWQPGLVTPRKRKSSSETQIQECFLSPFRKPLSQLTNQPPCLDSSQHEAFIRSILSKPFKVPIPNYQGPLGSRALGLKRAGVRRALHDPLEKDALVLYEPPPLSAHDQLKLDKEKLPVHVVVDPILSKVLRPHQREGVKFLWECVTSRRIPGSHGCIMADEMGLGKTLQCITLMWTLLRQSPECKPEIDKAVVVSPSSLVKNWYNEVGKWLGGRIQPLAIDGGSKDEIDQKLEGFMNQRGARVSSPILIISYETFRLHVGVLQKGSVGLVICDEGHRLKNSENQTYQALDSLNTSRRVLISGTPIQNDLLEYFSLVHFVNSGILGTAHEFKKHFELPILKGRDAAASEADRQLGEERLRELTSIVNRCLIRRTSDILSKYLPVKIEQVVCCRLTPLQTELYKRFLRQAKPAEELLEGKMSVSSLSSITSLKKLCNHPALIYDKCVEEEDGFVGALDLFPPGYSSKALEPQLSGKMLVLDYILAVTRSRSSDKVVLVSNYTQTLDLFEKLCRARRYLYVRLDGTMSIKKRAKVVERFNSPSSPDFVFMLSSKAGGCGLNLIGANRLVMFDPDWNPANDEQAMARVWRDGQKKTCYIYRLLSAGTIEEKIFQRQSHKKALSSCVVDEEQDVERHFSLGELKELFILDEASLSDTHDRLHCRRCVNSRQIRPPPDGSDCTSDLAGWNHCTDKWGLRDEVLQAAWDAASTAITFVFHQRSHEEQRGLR

[5] = Fluorescence-based cell-based high throughput dose response assay for inhibitors of the interaction of nucleotide-binding oligomerization domain containing 2 (NOD2) and the receptor-interacting serine-threonine kinase 2 (RIPK2).; format: functional; settings: Homo sapiens
BJ [6] = experiment: cytotoxicity toward BJ-TERT fibroblasts, dose response, cell-based, RAS-independent, luminescence (AID 1933); format: functional; settings: Homo sapiens
BJ [7] = experiment: cytotoxicity toward BJ-TERT-LT-ST fibroblasts, dose response, cell-based, RAS-independent, luminescence (AID 1935); format: functional; settings: Homo sapiens;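 further: BJ fibroblasts immortalized with TERT plus LT and ST oncogenes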
[8] = cytotoxicity in HEK-293T cells, dose response, cytotoxicity control for TCR NF-kB inhibitor project, luminescence, T-cell screen hits (AID 489026); format: functional, cell-based;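 further: cells exposed to compound about 14 hours before the viability readout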
[9] = cytotoxicity toward DRD oncogenic fibroblasts, dose response, cell-based, non-viral oncogenic, luminescence (AID 1934); format: functional; settings: Homo sapiens
BJ [10] = experiment: cells; format: functional, cell-based; settings: Homo sapiens
cells = format: functional, cell-based
[11] = molecular target: T3, Nuclear receptor subfamily 0 group B member 1 (Homo sapiens, UniProt P51843); format: functional, cell-based;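 further: HEK293T cells transfected with SF-1 and DAX-1 plus StAR promoter luciferase reporter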
T3 sequence (P51843 whole entry): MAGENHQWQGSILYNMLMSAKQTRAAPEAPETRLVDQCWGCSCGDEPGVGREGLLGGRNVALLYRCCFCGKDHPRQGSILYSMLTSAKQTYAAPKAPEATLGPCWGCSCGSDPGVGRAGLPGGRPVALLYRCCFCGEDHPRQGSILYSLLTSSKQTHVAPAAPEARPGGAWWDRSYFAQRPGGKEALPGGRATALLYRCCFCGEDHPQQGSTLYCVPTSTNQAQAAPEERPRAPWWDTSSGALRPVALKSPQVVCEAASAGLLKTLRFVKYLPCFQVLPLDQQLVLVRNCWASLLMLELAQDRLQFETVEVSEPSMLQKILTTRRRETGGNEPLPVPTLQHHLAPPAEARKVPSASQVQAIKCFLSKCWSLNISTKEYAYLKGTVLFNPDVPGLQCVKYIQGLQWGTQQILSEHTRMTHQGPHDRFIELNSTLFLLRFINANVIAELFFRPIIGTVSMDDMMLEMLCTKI

[12] = off-target signal loss in HeLa-CEM21 co-culture – HeLa F-luc CTL cells, cherry-picked, counter-screen for HIV-1 Env fusion inhibitor project, dose response (AID 652040); format: functional, cell-based;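 further: potency for signal decrease marking cytotoxic or nonspecific inhibition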

EC50 [1]: 3.35 µM (active)
Compound: CCN1CCCC1CNS(=O)(=O)c1c(C)cc(C)cc1C (centres undefined)

Compound: COc1ccc(S(N)(=O)=O)cc1C(=O)NCCCN1CCN(c2cccc(Cl)c2)CC1.CS(=O)(=O)O
EC50 [2]: > 56.1 µM (not active)
AC50 (Cytochrome P450 2C19): 14.1 µM (inconclusive)
AC50 (Cytochrome P450 3A4): inconclusive
AC50 (Cytochrome P450 2C9): 0.1 µM (inconclusive)
EC50 [3]: > 112 µM (not active)

AC50 [4]: 40.5 µM (active)
Compound: c1ccc2c3nc[nH]c(N4CCN(C5CCCCC5)CC4)c-3nc2c1

AC50 (Cytochrome P450 3A4): inconclusive
Compound: O=C(NCc1ccccc1)c1ccc2c(c1)C(=O)N(CC1CCCO1)C2=O (centres undefined)

Compound: Cc1noc2ncnc(Sc3c(Cl)cccc3Cl)c12
IC50 [5]: 4.6 µM (active)

AC50 (Cytochrome P450 3A4): inconclusive
Compound: Cn1cccc1C(=O)N1CCC2(CCN(C(=O)Nc3ccccc3)CC2)CC1

Compound: CC(=O)Nc1ccc(S(=O)(=O)N2c3ccccc3C(C)=CC2(C)C)cc1
EC50 (BJ [6]): 7.82 µM (inconclusive)
EC50 (BJ [7]): 9.33 µM (inconclusive)
IC50 [8]: > 80 µM (inactive)
IC50 [5]: 49.7 µM (inactive)
EC50 [9]: 10.4 µM (inconclusive)
EC50 (BJ [10]): 13 µM (inconclusive)

Compound: O=C(COc1ccc(Cl)cc1Cl)NC(=O)NC1CCCC1
IC50 (cells): > 67.5 µM (inactive)
IC50 [11]: > 67.5 µM (inactive)

Compound: CC1CCCC(C)N1CCCNC(=O)c1nn(C)c2c1CSc1ccccc1-2 (centres undefined)
AC50 [12]: > 70 µM (inactive)
